How the values were obtained:
C57BL/6J mice = test: Carotid artery FeCl3 injury thrombosis model; type: in vivo; settings: for rate of clot / thrombus formation / time to cessation of blood flow following arterial injury: 25 mg/kg i.p. vs vehicle (saline)
Protocol: Mice were used to causally test whether elevation in xylitol plasma levels results in enhancement in thrombosis potential. All mice were C57BL/6J and 12-14 weeks of age. All animal studies were approved by the Institutional Animal Care and Use Committee at the Cleveland Clinic (IRB 2019-2251).
The FeCl3-induced carotid artery injury model was performed using intravital fluorescence microscopy with continuous image capture monitoring, as previously described.^44 Time to cessation of blood flow through thrombus formation for all experiments was determined by visual inspection by two independent investigators.
The FeCl3-induced carotid artery injury model was performed as previously described.^9 BL/6J mice, both male and female, 12-14 weeks of age, were i.p. injected with vehicle (saline) or xylitol (25 mg/kg). The animals were anesthetized with 100 mg/kg ketamine+10 mg/kg xylazine and rhodamine 6G (100 μL; 0.5 mg/mL, catalogue #252433, Sigma, St. Louis, MO, USA) was injected into the right jugular vein for platelet labeling. The left carotid artery was then exposed, and an injury induced using a 1 mm^2 Whatman filter paper containing 10% FeCl3 (Catalogue #157740, Sigma, St. Louis, MO, USA) for 1 min. Thrombus formation in real time was monitored using intravital fluorescence microscopy equipped with video recording. Time to cessation of blood flow through thrombus formation for all experiments was determined by visual inspection by two independent investigators and animals were immediately euthanized after data acquisition.
The common carotid artery FeCl3 induced injury model was performed as previously described^54. 12-14 weeks old BL/6J mice were injected with vehicle (normal saline), erythritol (25 mg/kg) or 1,5-AHG (25 mg/kg) and anesthetized with 100 mg/kg ketamine+10 mg/kg xylazine. Rhodamine 6G (100 μL; 0.5 mg/mL, catalogue #252433, Sigma, St. Louis, MO, USA) was injected into the right jugular vein to label platelets. The left carotid artery was then injured with a Whatman filter paper of 1 mm^2 size containing 10% FeCl3 (Catalogue #157740, Sigma, St. Louis, MO, USA) for 1 min. Intravital fluorescence microscopy equipped with video recording was used to monitor thrombus formation in real time. Time to cessation of blood flow through clot formation for all studies was determined by visual inspection of captured video by two independent investigators in real time. Data for the in vivo thrombosis were collected by Streampix 7—Multiple Camera DVR Software (NorPix Inc, Montreal, Canada). Animals were immediately euthanized after data acquisition.

[1] = system: stable subjects undergoing elective diagnostic cardiac evaluation (Validation / US cohort); design: species or system human; settings: in vivo
Text: Our second clinical study employed an independent non-overlapping Validation Cohort, where we employed quantitative stable isotope dilution liquid chromatography tandem mass spectrometry (LC-MS/MS) to determine xylitol levels in serum samples from 2,149 patients (non-overlapping from GeneBank at the Cleveland Clinic; clinicaltrials.gov identifier: NCT0059020).^35-36
In both, the Discovery and Validation Cohorts, Major Adverse Cardiovascular Events (MACE) were defined as death, nonfatal myocardial infarction, or nonfatal cerebrovascular accident (stroke) during follow-up. Adjudicated long term survival data were collected through medical records review and Social Security Death Index query. Cardiovascular disease (CVD) was indicated as presence of peripheral artery disease or coronary artery disease, indicated as any clinical history of myocardial infarction, coronary revascularization (including percutaneous coronary intervention, coronary artery bypass surgery), or angiographic evidence of significant stenosis (≥50%) in 1 or more major coronary arteries. Estimated glomerular filtration rate (eGFR) in both cohorts was calculated based on the recent Chronic Kidney Disease Epidemiology Collaboration 2021 CKD-EPI Creatinine equation.^37 Platelet-related hematology analyses were performed with an Advia 120 hematology analyzer (Siemens, New York, NY).^38 Use of anti-platelet agents (=1556) was defined as either aspirin or a P2Y12 agent or both. All observational studies in this example are reported in compliance with the STrengthening the Reporting of Observational studies in Epidemiology (STROBE)-Statement.^39 Information on gender of study participants of the Discovery and Validation Cohorts is reported in Table 1-3.
Stable-isotope-dilution LC-MS/MS was developed to specifically quantify xylitol in human and mouse plasma, urine and feces (fecal pellets were dissolved in water and supernatant subjected to LC-MS/MS). Accuracy and precision of the method to quantify xylitol (separated from its structural isomers arabitol and rabitol) were assessed by a standard addition method 4 of pure synthetic standard into three different plasma pools. Accuracy was 2.4-2.8%, and intra- and inter-day coefficients of variation (CVs), were 1.2-8.9% and 10.9-11.5%, respectively. Urine creatinine was similarly analyzed by stable-isotope-dilution LC-MS/MS using D3-creatinine as internal standard as previously described.^47 Erythritol was quantified by stable-isotope-dilution LC-MS/MS as previously described.^19 Details for all assays can be found in the additional methods.
Continuous variables are summarized as median (interquartile range [IQR]), and categorical variables are presented as %. […]

| Compound | rate of clot / thrombus formation (C57BL/6J mice) | time to cessation of blood flow following arterial injury (C57BL/6J mice) | HR [95% CI] incident event risk [1] | HR with 95% CI [1] | adjusted HR [95% CI] incident MACE [1] | plasma xylitol level at which heightened thrombosis potential was observed (C57BL/6J mice; animal model of thrombosis (FIG. 4B)) | HR [95% CI] for incident (3 year) MACE [1] |
| --- | --- | --- | --- | --- | --- | --- | --- |
| OC[C@@H](O)[C@@H](O)CO [erythritol] | marked enhancement | significant reduction | 2.64 [1.79-3.90] | 1.21 (1.12-1.31) | 1.80 [1.18-2.77] |  |  |
| OC[C@@H](O)[C@H](O)[C@@H](O)CO [xylitol] | marked increase | significant reduction |  |  |  | 19 µM | 2.31 [1.52-3.52] |

Reference: patent US20260219274A1, “POLYOL SWEETNERS AND CARDIOVASCULAR AND THROMBOTIC EVENT RISK” (THE CLEVELAND CLINIC FOUNDATION, priority 2023, published 2026)
